Patent US9274101B2 (BIOLOG, Inc., priority 2001, dated 2016)

Legend:
Assay type in all cases: cell-based, human
[1] = test system: Undifferentiated HL-60 cells; test: Energy use by undifferentiated HL-60 cells
HL-60 cells = test: HL-60 responses to selected compounds at a range of concentrations
Protocol: In this Example, methods for testing unattached cells for their ability to use various concentrations of selected carbon sources are described. The carbon sources used in this Example were identified by the methods disclosed in Example 27. Similarly, HL-60 cells were cultured as described in Example 27.
After washing, HL-60 cells were resuspended in DME-R. An aliquot of the cell suspension was counted by trypan blue exclusion and the cell density was adjusted to 6.67×10^5/mL. Fifty μL of DME-R were added to each well of the appropriate number of half area, 96-well plates, followed by 23 μL of the appropriate dilution of each test energy source. Stocks of 133 mM of each test chemical were prepared in tissue culture grade water, sterile filtered, and dilutions were prepared in a master plate so that, upon dilution in a total volume of 150 μL, the final concentrations would be 0.033 to 20 mM. Negative control wells received 23 μL of tissue culture grade water. The cells were plated at a volume of 75 μL/well, giving a final cell density of 5×10^4/well. For each plate containing energy sources and cells, a second, control plate containing only energy sources was prepared. Plates were incubated at 5% CO2, 90-100% humidity, and 37° C. for 24 hours prior to addition of the MTS/MPMS colorometric reagent (7.5 μL/well). The color formed in each well after an additional 24 hour incubation period, was measured on a plate reader at 490 nm with a reference wavelength of 650 nm. OD values from the control plate were subtracted from the OD values obtained with cells prior to normalizing the data to % negative control (cells without added energy source).

[2] = test system: DMSO-differentiated HL-60 cells; test: Energy use by DMSO-differentiated HL-60 cells
Protocol: In this Example, methods for testing in vitro-differentiated cells for their ability to use multiple energy sources are described. Prior to differentiation, HL-60 cells were cultured as described in Example 27. DMSO-induced differentiation (Odani et al., Res. Commun. Mol. Pathol. Pharmacol. 108:381-391 [2000]; and Yamaguchi et al., Biol. Pharm. Bull. 20:943-947 [1997]) was accomplished by incubation of the cells in the presence of 1.25% DMSO for 3 days.
After washing, HL-60 cells were resuspended in DME-R. An aliquot of the cell suspension was counted by trypan blue exclusion and the cell density was adjusted to 6.67×10^5/mL. Fifty μL of DME-R were added to each well of the appropriate number of half area, 96-well plates, followed by 25 μL of the appropriate dilution of each test energy source. Stocks of 133 mM of each test chemical were prepared in tissue culture grade water, sterile filtered, and dilutions were prepared in a master plate so that, upon dilution into a half-area 96-well microtiter plate to a total well volume of 150 μL, the final concentrations would be 0.033 to 20 mM. Negative control wells received 25 μL of tissue culture grade water. The cells were plated at a volume of 75 μL/well, giving a final cell density of 5×10^4/well. For each plate containing energy sources and cells, a second, control plate containing only energy sources was prepared with the same total volume of liquid (148 μL/well). Plates were incubated at 5% CO2, 90-100% humidity, and 37° C. for 24 hours prior to addition of the MTS/MPMS calorimetric reagent (7.5 μL/well). The color formed in each well 24 hours after addition of the colorimetric reagent, was measured with a plate reader at 490 nm with a reference wavelength of 650 nm. OD values from the control plate were subtracted from the OD values obtained with cells prior to normalizing the data to % negative control (cells without added energy source).

O=C1O[C@@H]([C@H](O)CO)[C@H](O)[C@H]1O [D-gal acid g-lactone]
Energy Use by Undifferentiated HL-60 Cells ([1]; Conc. 0.03 mM): 122.7 % of negative control
Energy Use by Undifferentiated HL-60 Cells ([1]; Conc. 0.10 mM): 127.4 % of negative control
Energy Use by Undifferentiated HL-60 Cells ([1]; Conc. 0.33 mM): 125.3 % of negative control
Energy Use by Undifferentiated HL-60 Cells ([1]; Conc. 1.00 mM): 133.2 % of negative control
Energy Use by Undifferentiated HL-60 Cells ([1]; Conc. 3.3 mM): 152.6 % of negative control
Energy Use by Undifferentiated HL-60 Cells ([1]; Conc. 10 mM): 136.7 % of negative control
Energy Use by Undifferentiated HL-60 Cells ([1]; Conc. 15 mM): 147.5 % of negative control
Energy Use by Undifferentiated HL-60 Cells ([1]; Conc. 20 mM): 125.0 % of negative control
HL-60 Cell Responses to Selected Compounds from PM1 and PM2 (HL-60 cells; Conc. 0.03 mM): 128.3 % of negative control
HL-60 Cell Responses to Selected Compounds from PM1 and PM2 (HL-60 cells; Conc. 0.10 mM): 128.7 % of negative control
HL-60 Cell Responses to Selected Compounds from PM1 and PM2 (HL-60 cells; Conc. 0.33 mM): 129.3 % of negative control
HL-60 Cell Responses to Selected Compounds from PM1 and PM2 (HL-60 cells; Conc. 1.00 mM): 141.4 % of negative control
HL-60 Cell Responses to Selected Compounds from PM1 and PM2 (HL-60 cells; Conc. 3.3 mM): 142.2 % of negative control
HL-60 Cell Responses to Selected Compounds from PM1 and PM2 (HL-60 cells; Conc. 10 mM): 127.1 % of negative control
HL-60 Cell Responses to Selected Compounds from PM1 and PM2 (HL-60 cells; Conc. 15 mM): 122.2 % of negative control
HL-60 Cell Responses to Selected Compounds from PM1 and PM2 (HL-60 cells; Conc. 20 mM): 93.9 % of negative control
Energy Use by DMSO-Differentiated HL-60 Cells ([2]; Conc. 0.03 mM): 111.9 % of negative control
Energy Use by DMSO-Differentiated HL-60 Cells ([2]; Conc. 0.10 mM): 122.9 % of negative control
Energy Use by DMSO-Differentiated HL-60 Cells ([2]; Conc. 0.33 mM): 133.3 % of negative control
Energy Use by DMSO-Differentiated HL-60 Cells ([2]; Conc. 1.00 mM): 157.1 % of negative control
Energy Use by DMSO-Differentiated HL-60 Cells ([2]; Conc. 3.3 mM): 185.9 % of negative control
Energy Use by DMSO-Differentiated HL-60 Cells ([2]; Conc. 10 mM): 166.9 % of negative control
Energy Use by DMSO-Differentiated HL-60 Cells ([2]; Conc. 15 mM): 130.4 % of negative control
Energy Use by DMSO-Differentiated HL-60 Cells ([2]; Conc. 20 mM): 99.2 % of negative control

O=C[C@H](O)[C@@H](O)[C@@H](O)[C@H](O)C(=O)O [D-galacturonic acid]
activity at 30 µM ([1]; Homo sapiens, HL-60, 24 h, Conc. 0.03 mM, read-out: Energy Use by Undifferentiated HL-60 Cells): 116%
activity at 100 µM ([1]; Homo sapiens, HL-60, 24 h, Conc. 0.10 mM, read-out: Energy Use by Undifferentiated HL-60 Cells): 116%
activity at 330 µM ([1]; Homo sapiens, HL-60, 24 h, Conc. 0.33 mM, read-out: Energy Use by Undifferentiated HL-60 Cells): 116%
activity at 1000 µM ([1]; Homo sapiens, HL-60, 24 h, Conc. 1.00 mM, read-out: Energy Use by Undifferentiated HL-60 Cells): 141%
activity at 3300 µM ([1]; Homo sapiens, HL-60, 24 h, Conc. 3.3 mM, read-out: Energy Use by Undifferentiated HL-60 Cells): 144%
activity at 10000 µM ([1]; Homo sapiens, HL-60, 24 h, Conc. 10 mM, read-out: Energy Use by Undifferentiated HL-60 Cells): 134%
activity at 15000 µM ([1]; Homo sapiens, HL-60, 24 h, Conc. 15 mM, read-out: Energy Use by Undifferentiated HL-60 Cells): 162%
activity at 20000 µM ([1]; Homo sapiens, HL-60, 24 h, Conc. 20 mM, read-out: Energy Use by Undifferentiated HL-60 Cells): 113%
activity at 30 µM (HL-60 cells; Homo sapiens, HL-60, Conc. 0.03 mM, read-out: HL-60 Cell Responses to Selected Compounds from PM1 and PM2): 124%
activity at 100 µM (HL-60 cells; Homo sapiens, HL-60, Conc. 0.10 mM, read-out: HL-60 Cell Responses to Selected Compounds from PM1 and PM2): 125%
activity at 330 µM (HL-60 cells; Homo sapiens, HL-60, Conc. 0.33 mM, read-out: HL-60 Cell Responses to Selected Compounds from PM1 and PM2): 126%
activity at 1000 µM (HL-60 cells; Homo sapiens, HL-60, Conc. 1.00 mM, read-out: HL-60 Cell Responses to Selected Compounds from PM1 and PM2): 138%
activity at 3300 µM (HL-60 cells; Homo sapiens, HL-60, Conc. 3.3 mM, read-out: HL-60 Cell Responses to Selected Compounds from PM1 and PM2): 140%
activity at 10000 µM (HL-60 cells; Homo sapiens, HL-60, Conc. 10 mM, read-out: HL-60 Cell Responses to Selected Compounds from PM1 and PM2): 122%
activity at 15000 µM (HL-60 cells; Homo sapiens, HL-60, Conc. 15 mM, read-out: HL-60 Cell Responses to Selected Compounds from PM1 and PM2): 101%
activity at 20000 µM (HL-60 cells; Homo sapiens, HL-60, Conc. 20 mM, read-out: HL-60 Cell Responses to Selected Compounds from PM1 and PM2): 25%
activity at 30 µM ([2]; Homo sapiens, HL-60, 24 h, Conc. 0.03 mM, read-out: Energy Use by DMSO-Differentiated HL-60 Cells): 118%
activity at 100 µM ([2]; Homo sapiens, HL-60, 24 h, Conc. 0.10 mM, read-out: Energy Use by DMSO-Differentiated HL-60 Cells): 123%
activity at 330 µM ([2]; Homo sapiens, HL-60, 24 h, Conc. 0.33 mM, read-out: Energy Use by DMSO-Differentiated HL-60 Cells): 138%
activity at 1000 µM ([2]; Homo sapiens, HL-60, 24 h, Conc. 1.00 mM, read-out: Energy Use by DMSO-Differentiated HL-60 Cells): 157%
activity at 3300 µM ([2]; Homo sapiens, HL-60, 24 h, Conc. 3.3 mM, read-out: Energy Use by DMSO-Differentiated HL-60 Cells): 168%
activity at 10000 µM ([2]; Homo sapiens, HL-60, 24 h, Conc. 10 mM, read-out: Energy Use by DMSO-Differentiated HL-60 Cells): 173%
activity at 15000 µM ([2]; Homo sapiens, HL-60, 24 h, Conc. 15 mM, read-out: Energy Use by DMSO-Differentiated HL-60 Cells): 126%
activity at 20000 µM ([2]; Homo sapiens, HL-60, 24 h, Conc. 20 mM, read-out: Energy Use by DMSO-Differentiated HL-60 Cells): 101%

O=C1O[C@H]([C@@H](O)CO)[C@@H](O)[C@@H]1O [L-gal acid g-lactone]
Energy Use by Undifferentiated HL-60 Cells ([1]; Conc. 0.03 mM): 117.0 % of negative control
Energy Use by Undifferentiated HL-60 Cells ([1]; Conc. 0.10 mM): 125.9 % of negative control
Energy Use by Undifferentiated HL-60 Cells ([1]; Conc. 0.33 mM): 132.9 % of negative control
Energy Use by Undifferentiated HL-60 Cells ([1]; Conc. 1.00 mM): 137.0 % of negative control
Energy Use by Undifferentiated HL-60 Cells ([1]; Conc. 3.3 mM): 160.8 % of negative control
Energy Use by Undifferentiated HL-60 Cells ([1]; Conc. 10 mM): 153.0 % of negative control
Energy Use by Undifferentiated HL-60 Cells ([1]; Conc. 15 mM): 163.4 % of negative control
Energy Use by Undifferentiated HL-60 Cells ([1]; Conc. 20 mM): 126.2 % of negative control
HL-60 Cell Responses to Selected Compounds from PM1 and PM2 (HL-60 cells; Conc. 0.03 mM): 129.3 % of negative control
HL-60 Cell Responses to Selected Compounds from PM1 and PM2 (HL-60 cells; Conc. 0.10 mM): 132.3 % of negative control
HL-60 Cell Responses to Selected Compounds from PM1 and PM2 (HL-60 cells; Conc. 0.33 mM): 132.4 % of negative control
HL-60 Cell Responses to Selected Compounds from PM1 and PM2 (HL-60 cells; Conc. 1.00 mM): 145.0 % of negative control
HL-60 Cell Responses to Selected Compounds from PM1 and PM2 (HL-60 cells; Conc. 3.3 mM): 141.5 % of negative control
HL-60 Cell Responses to Selected Compounds from PM1 and PM2 (HL-60 cells; Conc. 10 mM): 122.8 % of negative control
HL-60 Cell Responses to Selected Compounds from PM1 and PM2 (HL-60 cells; Conc. 15 mM): 125.0 % of negative control
HL-60 Cell Responses to Selected Compounds from PM1 and PM2 (HL-60 cells; Conc. 20 mM): 100.4 % of negative control
Energy Use by DMSO-Differentiated HL-60 Cells ([2]; Conc. 0.03 mM): 113.9 % of negative control
Energy Use by DMSO-Differentiated HL-60 Cells ([2]; Conc. 0.10 mM): 129.2 % of negative control
Energy Use by DMSO-Differentiated HL-60 Cells ([2]; Conc. 0.33 mM): 137.5 % of negative control
Energy Use by DMSO-Differentiated HL-60 Cells ([2]; Conc. 1.00 mM): 155.4 % of negative control
Energy Use by DMSO-Differentiated HL-60 Cells ([2]; Conc. 3.3 mM): 178.2 % of negative control
Energy Use by DMSO-Differentiated HL-60 Cells ([2]; Conc. 10 mM): 171.1 % of negative control
Energy Use by DMSO-Differentiated HL-60 Cells ([2]; Conc. 15 mM): 131.1 % of negative control
Energy Use by DMSO-Differentiated HL-60 Cells ([2]; Conc. 20 mM): 98.1 % of negative control
